Target: T1, β-secretase (BACE) (Homo sapiens, UniProt P56817)
T1 construct: purchased Panvera
Assay: BACE FS1 % Inhibition Assay
Format: biochemical
Summary of the method: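 Percent inhibition per compound concentration was referenced to vehicle-treated enzyme and no-enzyme wells. Enzyme at a 4 μg/mL working stock plus compound was mixed for 20 min at room temperature before the FS1 substrate (300 μg/mL working stock) was added for a 1 h room-temperature reaction.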

T1 sequence (P56817 46-501): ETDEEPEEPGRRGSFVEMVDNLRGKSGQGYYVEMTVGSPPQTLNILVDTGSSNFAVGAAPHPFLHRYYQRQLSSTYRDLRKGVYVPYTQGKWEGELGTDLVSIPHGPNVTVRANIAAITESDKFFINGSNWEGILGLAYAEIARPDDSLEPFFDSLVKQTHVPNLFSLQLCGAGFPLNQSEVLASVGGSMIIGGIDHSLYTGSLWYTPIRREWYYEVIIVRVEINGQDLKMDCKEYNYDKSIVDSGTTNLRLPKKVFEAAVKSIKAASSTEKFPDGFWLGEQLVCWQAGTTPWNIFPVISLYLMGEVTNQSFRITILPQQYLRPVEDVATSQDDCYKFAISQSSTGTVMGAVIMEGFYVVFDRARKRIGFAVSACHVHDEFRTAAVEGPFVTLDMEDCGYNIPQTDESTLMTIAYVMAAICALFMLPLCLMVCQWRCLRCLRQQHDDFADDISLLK

Row | % Inhibition (FS) (0.3 μM test compound) [%] | % Inhibition (FS) (1 μM test compound) [%] | % Inhibition (FS) (3 μM test compound) [%] | SMILES | also measured
1 | 74 | 92 | 110 | NC1=Nc2ccc(-c3ccccc3F)cc2CN1CCNC(=O)C1CCCC1 [Compound 643] | 
2 | 46 | 72 | 104 | NC1=Nc2ccc(-c3ccccc3F)cc2CN1CCNC(=O)C12CC3CC(CC(C3)C1)C2 [Compound 644] | 
3 | 67 | 57 | 91 | CCCC(=O)NCCN1Cc2cc(-c3ccccc3F)ccc2N=C1N [Compound 645] | 
4 | 52 | 72 | 97 | CC(C)(C)C(=O)NCCN1Cc2cc(-c3ccccc3F)ccc2N=C1N [Compound 646] | 
5 | 39 | 74 | 104 | CCCCC(CC)C(=O)NCCN1Cc2cc(-c3ccccc3F)ccc2N=C1N (stereo not shown) [Compound 648] | 
6 | 34 | 65 | 95 | NC1=Nc2ccc(-c3ccccc3Cl)cc2CN1CCNC(=O)C1CCC1 [Compound 649] | 
7 | 72 | 94 | 112 | NC1=Nc2ccc(-c3ccccc3Cl)cc2CN1CCNC(=O)C1CCCC1 [Compound 650] | 
8 | <30 | 51 | 96 | NC1=Nc2ccc(-c3ccccc3Cl)cc2CN1CCNC(=O)C12CC3CC(CC(C3)C1)C2 [Compound 651] | 
9 | 31 | 63 | 91 | CCCC(=O)NCCN1Cc2cc(-c3ccccc3Cl)ccc2N=C1N [Compound 652] | 
10 | 46 | 82 | 101 | CC(C)(C)C(=O)NCCN1Cc2cc(-c3ccccc3Cl)ccc2N=C1N [Compound 653] | 
11 | 45 | 79 | 104 | CCCCC(CC)C(=O)NCCN1Cc2cc(-c3ccccc3Cl)ccc2N=C1N (stereo not shown) [Compound 655] | 
12 | 56 | 87 | 104 | Cc1ccccc1-c1ccc2c(c1)CN(CCNC(=O)C1CCC1)C(N)=N2 [Compound 656] | 
13 | <30 | 62 | 100 | Cc1ccccc1-c1ccc2c(c1)CN(CCNC(=O)C13CC4CC(CC(C4)C1)C3)C(N)=N2 [Compound 658] | 
14 | 43 | 69 | 100 | CCCC(=O)NCCN1Cc2cc(-c3ccccc3C)ccc2N=C1N [Compound 659] | 
15 | 63 | 86 | 105 | Cc1ccccc1-c1ccc2c(c1)CN(CCNC(=O)C(C)(C)C)C(N)=N2 [Compound 660] | 

Second part, the compound before the results:

Row | SMILES | % Inhibition (FS) (0.3 μM test compound) [%] | % Inhibition (FS) (1 μM test compound) [%] | % Inhibition (FS) (3 μM test compound) [%] | also measured
16 | CCCC=Cc1ccc2c(c1)CN(CCNC(=O)c1ccc(NC(C)=O)cc1)C(N)=N2 [Compound 592] | <30 | <30 | <30 | 
17 | CC(=O)Nc1ccc(C(=O)NCCN2Cc3cc(-c4cccc(CO)c4)ccc3N=C2N)cc1 [Compound 593] | <30 | <30 | <30 | 
18 | CC(=O)Nc1ccc(C(=O)NCCN2Cc3cc(-c4cccc(C(F)(F)F)c4)ccc3N=C2N)cc1 [Compound 594] | <30 | <30 | <30 | 
19 | CCCC=Cc1ccc2c(c1)CN(CCNC(=O)Cc1ccccc1)C(N)=N2 [Compound 596] | <30 | <30 | <30 | 
20 | CC(=O)c1cccc(-c2ccc3c(c2)CN(CCNC(=O)Cc2ccccc2)C(N)=N3)c1 [Compound 598] | <30 | <30 | 36 | 
21 | NC1=Nc2ccc(-c3cccc(CO)c3)cc2CN1CCNC(=O)Cc1ccccc1 [Compound 599] | <30 | <30 | 65 | 
22 | NC1=Nc2ccc(-c3cccc(C(F)(F)F)c3)cc2CN1CCNC(=O)Cc1ccccc1 [Compound 600] | <30 | <30 | 41 | 
23 | CCCC(CNC(=O)C1CCCCC1)N1Cc2cc(Oc3ccccc3)ccc2N=C1N (stereo not shown) [Compound 601] |  |  |  | % Inhibition (FS) (0.3 μM test compound, 0.3 µM): 105%; % Inhibition (FS) (1 μM test compound, 1 µM): 115%; % Inhibition (FS) (3 μM test compound, 3 µM): 121%
24 | CCCC(CNC(=O)C12CC3CC(CC(C3)C1)C2)N1Cc2cc(Oc3ccccc3)ccc2N=C1N (stereo not shown) [Compound 602] |  |  |  | % Inhibition (FS) (0.3 μM test compound, 0.3 µM): 78%; % Inhibition (FS) (1 μM test compound, 1 µM): 113%; % Inhibition (FS) (3 μM test compound, 3 µM): 121%
25 | CCC[C@H](CNC(=O)CCC(C)C)N1Cc2cc(Oc3ccccc3)ccc2N=C1N [Compound 603] | 101 | 114 | 122 | 
26 | COc1ccccc1-c1ccc2c(c1)CN(Cc1cccc(C(=O)N(C)C3CCCCC3)c1)C(NC(C)=O)=N2 [Compound 607] | 94 | 116 | 123 | 
27 | NC1=Nc2ccc(Oc3ccccc3)cc2CN1C1CCCN(C(=O)C2CCCCC2)C1 (stereo not shown) [Compound 611] | <30 | 36 | <30 | 
28 | CCCC(CCC)C(=O)N1CCCC(N2Cc3cc(Oc4ccccc4)ccc3N=C2N)C1 (stereo not shown) [Compound 612] | <30 | 34 | <30 | 
29 | CC(C)CCC(=O)N1CCCC(N2Cc3cc(Oc4ccccc4)ccc3N=C2N)C1 (stereo not shown) [Compound 613] | 36 | 31 | <30 | 
30 | NC1=Nc2ccc(Oc3ccccc3)cc2CN1C(CNC(=O)C1CCCCC1)Cc1ccc(O)cc1 (stereo not shown) [Compound 614] | <30 | <30 | <30 | 
31 | CC(C)CCC(=O)NCC(Cc1ccc(O)cc1)N1Cc2cc(Oc3ccccc3)ccc2N=C1N (stereo not shown) [Compound 615] | <30 | <30 | <30 | 
32 | CN(C(=O)CCC(C1CCOCC1)N1Cc2cc(Oc3ccccc3)ccc2N=C1N)C1CCCCC1 (stereo not shown) [Compound 619] | 119 | 118 | 125 | 
33 | COc1ccccc1-c1cc2c(cc1F)CN(CCC(=O)NC1C3CC4CC(C3)CC1C4)C(N)=N2 (stereo not shown) [Compound 620] | <30 | <30 | 37 | 

Row | SMILES | % Inhibition (FS) (0.3 μM test compound) [%] | % Inhibition (FS) (1 μM test compound) [%] | % Inhibition (FS) (3 μM test compound) [%] | also measured
34 | NC1=Nc2ccc(-c3ccc(F)cc3)cc2CN1CCNC(=O)C1CCCCC1 [Compound 623] | <30 |  |  | % Inhibition (FS) (1 μM test compound, 1 µM): <30%; % Inhibition (FS) (3 μM test compound, 3 µM): 82%
35 | NC1=Nc2ccc(-c3ccc(F)cc3)cc2CN1CCNC(=O)C1CCCCC1 [Compound 624] | <30 |  |  | % Inhibition (FS) (1 μM test compound, 1 µM): 38%; % Inhibition (FS) (3 μM test compound, 3 µM): 78%
36 | NC1=Nc2ccc(-c3ccc(Cl)cc3)cc2CN1CCNC(=O)C1CCCCC1 [Compound 626] | <30 | <30 | 56 | 
37 | Cc1ccc(-c2ccc3c(c2)CN(CCNC(=O)C2CCCCC2)C(N)=N3)cc1 [Compound 628] | <30 | <30 | 32 | 
38 | COc1ccc(C)cc1-c1ccc2c(c1)CN(CCNC(=O)C1CCCCC1)C(N)=N2 [Compound 630] | <30 | <30 | 48 | 
39 | COc1ccc(F)cc1-c1ccc2c(c1)CN(CCNC(=O)C1CCCCC1)C(N)=N2 [Compound 631] | <30 | <30 | 48 | 
40 | CN(C(=O)CCC(C1CCCCC1)N1Cc2cc(Oc3ccccc3)ccc2N=C1N)C1CCOCC1 (stereo not shown) [Compound 633] | <30 | 30 | 70 | 
41 | NC1=Nc2ccc(Oc3ccccc3)cc2CN1CC(NC(=O)C1CCCCC1)C1CCCCC1 (stereo not shown) [Compound 637] | <30 | <30 | 73 | 
42 | CN(C(=O)CCC(C1CCCCC1)N1Cc2cc(Oc3ccccc3)ccc2N=C1N)C1CCC(O)CC1 (stereo not shown) [Compound 639] | <30 | <30 | 48 | 
43 | NC1=Nc2ccc(Oc3ccccc3)cc2CN1Cc1ocnc1C(=O)NC1CCCCC1 [Compound 640] | <30 | <30 | <30 | 
44 | CN(C(=O)c1ncoc1CN1Cc2cc(Oc3ccccc3)ccc2N=C1N)C1CCCCC1 [Compound 641] | <30 | <30 | 48 | 
45 | NC1=Nc2ccc(-c3ccccc3F)cc2CN1CCNC(=O)C1CCC1 [Compound 642] | 37 | 63 | 96 | 
46 | Cc1ccccc1-c1ccc2c(c1)CN(CCNC(=O)CCC(C)C)C(N)=N2 [Compound 661] |  |  |  | % Inhibition (FS) (0.3 μM compound, FS1 substrate): 68%; % Inhibition (FS) (1 μM compound, FS1 substrate): 98%
47 | CCCCC(CC)C(=O)NCCN1Cc2cc(-c3ccccc3C)ccc2N=C1N (stereo not shown) [Compound 662] |  |  |  | % Inhibition (FS) (0.3 μM compound, FS1 substrate): 66%; % Inhibition (FS) (1 μM compound, FS1 substrate): 97%
48 | NC1=Nc2ccc(-c3ccc4ccccc4c3)cc2CN1CCNC(=O)C1CCC1 [Compound 663] |  |  |  | % Inhibition (FS) (0.3 μM compound, FS1 substrate): <30%; % Inhibition (FS) (1 μM compound, FS1 substrate): <30%; % Inhibition (FS) (3 μM compound, FS1 substrate): <30%
49 | NC1=Nc2ccc(-c3ccc4ccccc4c3)cc2CN1CCNC(=O)C1CCCC1 [Compound 664] |  |  |  | % Inhibition (FS) (0.3 μM compound, FS1 substrate): <30%; % Inhibition (FS) (1 μM compound, FS1 substrate): <30%; % Inhibition (FS) (3 μM compound, FS1 substrate): <30%
50 | NC1=Nc2ccc(-c3ccc4ccccc4c3)cc2CN1CCNC(=O)C12CC3CC(CC(C3)C1)C2 [Compound 665] |  |  |  | % Inhibition (FS) (0.3 μM compound, FS1 substrate): 35%; % Inhibition (FS) (1 μM compound, FS1 substrate): <30%; % Inhibition (FS) (3 μM compound, FS1 substrate): <30%
